Consider 49 compounds from patent publication US11780845B2 (Relay Therapeutics, Inc., priority 2019, dated 2023).

pIC50: −log10 of the molar value.

In assay [1] the target is FGFR2 (Homo sapiens (Human), UniProt P21802). The assay can be described thus: Biochemical FGFR2 Caliper assay.
Assay [2] has as its system SNU-16. Briefly: Cell SNU-16 assay. It counts as cell-based.
Where [3] appears, read: Homo sapiens, SNU-16, SNU-16 cells.

Sequence of FGFR2 (P21802 22-821): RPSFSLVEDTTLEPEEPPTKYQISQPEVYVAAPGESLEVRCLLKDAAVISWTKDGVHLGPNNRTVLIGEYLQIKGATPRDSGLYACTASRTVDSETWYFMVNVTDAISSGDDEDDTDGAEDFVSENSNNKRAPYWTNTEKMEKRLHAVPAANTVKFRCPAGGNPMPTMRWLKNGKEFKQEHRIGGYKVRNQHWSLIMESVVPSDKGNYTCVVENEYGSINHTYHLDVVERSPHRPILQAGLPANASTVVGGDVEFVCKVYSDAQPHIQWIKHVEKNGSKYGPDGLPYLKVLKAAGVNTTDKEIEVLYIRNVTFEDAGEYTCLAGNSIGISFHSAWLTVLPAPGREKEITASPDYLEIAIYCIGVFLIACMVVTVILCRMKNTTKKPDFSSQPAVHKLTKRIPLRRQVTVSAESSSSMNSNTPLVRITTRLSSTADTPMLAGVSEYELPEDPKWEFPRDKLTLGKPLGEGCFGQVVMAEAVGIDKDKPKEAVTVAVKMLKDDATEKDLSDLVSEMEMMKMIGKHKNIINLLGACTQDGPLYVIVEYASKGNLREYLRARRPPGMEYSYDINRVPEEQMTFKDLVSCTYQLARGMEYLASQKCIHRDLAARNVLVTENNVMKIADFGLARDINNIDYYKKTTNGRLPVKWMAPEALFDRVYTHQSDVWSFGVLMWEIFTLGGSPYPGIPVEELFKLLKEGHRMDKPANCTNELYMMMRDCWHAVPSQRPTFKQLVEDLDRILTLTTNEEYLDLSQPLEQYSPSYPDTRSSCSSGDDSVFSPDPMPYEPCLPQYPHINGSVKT

Regarding `C=C(C)C(=O)Nc1ccc(-c2c(-c3cnn(-c4ccc(F)cc4)c3)c3c(N)ncnc3n2C)cc1` [Example 1285], the negative-log IC50 (pIC50) in assay [1] was 6.00 to 6.60; in assay [2] (setting [3]) it was 4.00 to 6.00.

Regarding `C=C(C)C(=O)Nc1ccc(-c2c(-c3ccc(-c4ccn(C)n4)nc3)c3c(N)ncnc3n2C)cc1` [Example 1124], the pIC50 in assay [1] is 4.00 to 6.00; in assay [2] (setting [3]) it was 6.00 to 6.60.

For `C=C(C)C(=O)Nc1cc(Cl)c(-c2c(-c3ccc(Oc4nccc(C)n4)cc3)c3c(N)ncnc3n2C)cc1C` [Example 1069], the pIC50 in assay [1] and in assay [2] (setting [3]) was 6.00 to 6.60 each time.

`C=CC(=O)Nc1ccc(-c2c(-c3cc[nH]c3)c3c(N)ncnc3n2C)cc1` [Example 1154]: the pIC50 in assay [1] was above 7.00; in assay [2] (setting [3]), at least 7.00.

Consider `C#Cc1cc(C)c(-c2cn3ncnc(N)c3c2-c2ccc(Oc3nccc(C)n3)c(F)c2)cn1` [Example 1321], for which the values for the pIC50 in assay [1] and in assay [2] (setting [3]) were above 7.00 and at least 7.00, respectively.

In the case of `Cn1c(-c2ccc(NC(=O)CCl)cc2)c(C2=CC[C@@H](C(=O)N3CCCC3)CC2)c2c(N)ncnc21` (single isomer, unassigned) [Example 906], the pIC50 was above 7.00 in assay [1] and at least 7.00 in assay [2] (setting [3]).

`COC/C=C/c1cc(C)c(-c2c(-c3ccc(Oc4nccc(C)n4)c(F)c3)c3c(N)ncnc3n2C)cn1` [Example 1378]: the pIC50 in assay [1] and in assay [2] (setting [3]) was 4.00 to 6.00 in each case.

On to `CC(=O)C(=O)Nc1ccc(-c2c(-c3ccc(C(=O)N4CCc5ccccc54)cc3)c3c(N)ncnc3n2C)cc1` [Example 980], for which the pIC50 in assay [1] is above 7.00; in assay [2] (setting [3]) it was at least 7.00.

Take `C=CC(=O)N1C[C@@H](c2c(-c3ccc(C(=O)N4CCCCC4)cc3)c3c(N)ncnc3n2C)C[C@@H]1C` (single isomer, unassigned) [Example 884]: the pIC50 was 4.00 to 6.00 in assay [1] and 6.60 to 7.00 in assay [2] (setting [3]).

For `Cc1ccnc(Oc2ccc(-c3c(-c4ccc(OC[C@@H]5CO5)cc4)n(C)c4ncnc(N)c34)cc2)n1` (single isomer, unassigned) [Example 918], the values for the pIC50 in assay [1] and in assay [2] (setting [3]) were 6.00 to 6.60 and 4.00 to 6.00, respectively.

Take `C=C(C)C(=O)Nc1ccc(-c2c(-c3ccc(Oc4nccc(C)n4)c(F)c3)c3c(C)ncnc3n2C)c(C)c1` [Example 1126]: the pIC50 in assay [1] was above 7.00; in assay [2] (setting [3]) it was at least 7.00.

On to `C#Cc1ncc(-c2c(-c3ccc(Oc4nccc(C)n4)c(F)c3)c3c(N)ncnc3n2C)c(C)c1C` [Example 1365], for which the results for the pIC50 in assay [1] and in assay [2] (setting [3]) were above 7.00 and at least 7.00, respectively.

Take `CC1=CCCN(c2ccc(-c3c(-c4ccc(Oc5nccc(C)n5)cc4)c4c(N)ncnc4n3C)cc2)C1=O` [Example 1090]: the values for the pIC50 in assay [1] and in assay [2] (setting [3]) were above 7.00 and at least 7.00, respectively.

Turning to `C=C(C)C(=O)Nc1ccc(-c2cn3ncnc(N)c3c2C2=CCC(C(=O)N(C)C)CC2)cc1` (centres unmarked) [Example 843], the pIC50 in assay [1] and in assay [2] (setting [3]) was 6.00 to 6.60 in each case.

Turning to `C#Cc1ccc(-c2c(-c3ccc(Oc4nccc(C)n4)cc3)c3c(N)ncnc3n2C)cc1F` [Example 1175], the pIC50 in assay [1] was 6.60 to 7.00; in assay [2] (setting [3]), at least 7.00.

`C=CC(=O)N1CCC(c2c(-c3ccc(-n4cc(C)cn4)cc3)c3c(N)ncnc3n2C)C1` (centres unmarked) [Example 811]: the figures for the pIC50 in assay [1] and in assay [2] (setting [3]) were 6.60 to 7.00 and 6.00 to 6.60, respectively.

With `C=C(C)C(=O)Nc1ccc(-c2c(C3=CC[C@@H](C(=O)N4CCCC4)CC3)c3c(N)ncnc3n2C)c(Cl)c1` [Example 1016], the negative logarithm of the IC50 (pIC50) in assay [1] and in assay [2] (setting [3]) was 4.00 to 6.00 in each case.

As for `C#Cc1cc(C)c(-c2c(C3=CC[C@@H](C(=O)N4CCC[C@H]4C)CC3)c3c(N)ncnc3n2C)cn1` (single isomer, unassigned) [Example 1219], the pIC50 is above 7.00 in assay [1] and at least 7.00 in assay [2] (setting [3]).

Turning to `C=C(C)C(=O)Nc1ccc(-c2c(C3=CC[C@@]4(CC3)Cc3ccccc3C4=O)c3c(N)ncnc3n2C)cc1` (single isomer, unassigned) [Example 987], the negative logarithm of the IC50 (pIC50) in assay [1] and in assay [2] (setting [3]) was 4.00 to 6.00 throughout.

With `C=CC(=O)NCc1ccc(-c2c(-c3ccc(Oc4nccc(C)n4)cc3)c3c(N)ncnc3n2C)cc1` [Example 921], the values for the pIC50 in assay [1] and in assay [2] (setting [3]) were 4.00 to 6.00 and 6.00 to 6.60, respectively.

On to `C=CC(=O)N1CCC(n2cc(-c3c(-c4ccc(C(=O)NCC(C)(C)O)cc4)c4c(N)ncnc4n3C)cn2)CC1` [Example 854], for which the pIC50 is 6.60 to 7.00 in assay [1] and at least 7.00 in assay [2] (setting [3]).

Consider `C=CC(=O)Nc1ccc(-c2c(-c3ccc(-n4cc(C)cn4)nc3)c3c(C)ncnc3n2C)cc1` [Example 1315], for which the negative-log IC50 (pIC50) in assay [1] is 6.60 to 7.00; in assay [2] (setting [3]) it was 6.00 to 6.60.

For `C#Cc1nc2cc(-c3c(-c4ccc(Oc5nccc(C)n5)c(F)c4)c4c(N)ncnc4n3C)c(C)cc2n1C` [Example 1434], the values for the pIC50 in assay [1] and in assay [2] (setting [3]) were above 7.00 and at least 7.00, respectively.

Regarding `Cc1ccnc(Oc2ccc(-c3c(C4=CCN(C(=O)[C@H]5CO5)C4)n(C)c4ncnc(N)c34)cc2)n1` (single isomer, unassigned) [Example 908], the pIC50 was 6.60 to 7.00 in assay [1] and at least 7.00 in assay [2] (setting [3]).

`C=CC(=O)N1CCC(c2c(-c3ccc(CC4CCCC4)cc3)c3c(N)ncnc3n2C)C1` (centres unmarked) [Example 799]: the pIC50 in assay [1] and in assay [2] (setting [3]) was 6.00 to 6.60 in each case.

`C=C(C)C(=O)Nc1ccc(-c2c(-c3cnn(-c4cccc(C(F)(F)F)c4)c3)c3c(N)ncnc3n2C)cc1` [Example 1291]: the negative logarithm of the IC50 (pIC50) in assay [1] and in assay [2] (setting [3]) was 4.00 to 6.00 each time.

`C#Cc1nc2cc(-c3c(C4=CC[C@H](C(=O)N5CCC[C@H]5COC)CC4)c4c(N)ncnc4n3C)ccc2[nH]1` [Example 1346]: the pIC50 in assay [1] was above 7.00; in assay [2] (setting [3]), 6.00 to 6.60.

With `C=C(C)C(=O)Nc1ccc(-c2c(C3=CCC(C(=O)N4CCCC4)CC3(F)F)c3c(N)ncnc3n2C)cc1` (centres unmarked) [Example 969], the negative-log IC50 (pIC50) in assay [1] is above 7.00; in assay [2] (setting [3]), at least 7.00.

In the case of `C=C(C)C(=O)Nc1ccc(-c2c(C3=CC[C@]4(CC3)CCN(C)C4=O)c3c(N)ncnc3n2C)cc1` (single isomer, unassigned) [Example 934], the pIC50 in assay [1] is above 7.00; in assay [2] (setting [3]) it was at least 7.00.

On to `C=C(C)C(=O)Nc1ccc(-c2cn3ncnc(N)c3c2-c2ccc(S(=O)(=O)NC3CCC3)cc2)cc1` [Example 834], for which the negative-log IC50 (pIC50) in assay [1] and in assay [2] (setting [3]) was 6.00 to 6.60 throughout.

For `C=C(C)C(=O)Nc1ccc(-c2c(-c3ccc(Oc4nccc(C)n4)c(F)c3)c3c(C)ncnc3n2C)cc1` [Example 1068], the pIC50 is above 7.00 in assay [1] and at least 7.00 in assay [2] (setting [3]).

As for `C=CC(=O)Nc1ccc(-c2c(-c3c[nH]c4ccccc34)c3c(N)ncnc3n2C)cc1` [Example 1157], the negative logarithm of the IC50 (pIC50) in assay [1] and in assay [2] (setting [3]) was 6.00 to 6.60 throughout.

On to `C=C(C)C(=O)Nc1ccc(-c2c(-c3ccc(C(=O)N4CCCC4)cc3)c3c(N)nn(C)c(=O)c3n2C)cc1` [Example 878], for which the figures for the pIC50 in assay [1] and in assay [2] (setting [3]) were 6.60 to 7.00 and at least 7.00, respectively.

With `C=CC(=O)N1CC(c2c(C3=CC[C@@H](C(=O)N4CCCC4)CC3)c3c(N)ncnc3n2C)C[C@@H]1C` (some centres unmarked) [Example 890], the negative-log IC50 (pIC50) in assay [1] and in assay [2] (setting [3]) was 4.00 to 6.00 throughout.

For `C#Cc1cc(OC)c(-c2c(-c3ncc(Oc4nccc(C)n4)cc3F)c3c(C)ncnc3n2C)cn1` [Example 1454], the results for the pIC50 in assay [1] and in assay [2] (setting [3]) were above 7.00 and at least 7.00, respectively.

For `C#Cc1nc2ccc(-c3c(-c4ccc(Oc5nccc(C)n5)c(F)c4)c4c(N)ncnc4n3C)cc2n1C` [Example 1395], the negative-log IC50 (pIC50) in assay [1] is above 7.00; in assay [2] (setting [3]) it was at least 7.00.

With `C=C(C)C(=O)Nc1ccc(-c2c(C3=CC[C@]4(CC3)Cc3ccc(OC)nc3C4=O)c3c(N)ncnc3n2C)cc1` [Example 1337], the figures for the negative-log IC50 (pIC50) in assay [1] and in assay [2] (setting [3]) were 6.60 to 7.00 and at least 7.00, respectively.

As for `C=C(C)C(=O)Nc1ccc(-c2c(C3=CC[C@@H](C(=O)N4CCCC[C@H]4C)CC3)c3c(N)ncnc3n2C)cc1` [Example 992], the negative-log IC50 (pIC50) in assay [1] was 4.00 to 6.00; in assay [2] (setting [3]), 6.60 to 7.00.

As for `C=C(C)C(=O)Nc1ccc(-c2c(C3=CC[C@H](C(=O)N4CCC[C@H]4C)CC3)c3c(N)ncnc3n2C)cc1` [Example 1006], the negative logarithm of the IC50 (pIC50) in assay [1] and in assay [2] (setting [3]) was 6.00 to 6.60 throughout.

Consider `C#Cc1cc(C)c(-c2c(C3=CC[C@H](C(=O)N4CCCC4)CC3)c3c(C)ncnc3n2C)cn1` (single isomer, unassigned) [Example 1201], for which the pIC50 in assay [1] was above 7.00; in assay [2] (setting [3]) it was at least 7.00.

Consider `C#Cc1c(F)cc(-c2c(-c3ccc(Oc4nccc(C)n4)cc3)c3c(N)ncnc3n2C)cc1F` [Example 1177], for which the negative logarithm of the IC50 (pIC50) in assay [1] is above 7.00; in assay [2] (setting [3]) it was at least 7.00.

With `C=CC(=O)N1CCN(c2cccc(-c3c(-c4ccc(Oc5cccc(C)n5)cc4)c4c(N)ncnc4n3C)c2)CC1` [Example 1004], the negative-log IC50 (pIC50) was above 7.00 in assay [1] and at least 7.00 in assay [2] (setting [3]).

As to `C=C(C)C(=O)Nc1ccc(-c2c(C3=CC[C@@H](C(=O)N4CCCC4)C[C@@H]3C)c3c(N)ncnc3n2C)cc1` [Example 937], the pIC50 in assay [1] and in assay [2] (setting [3]) was 4.00 to 6.00 in each case.

As for `C=CC(=O)N1CC[C@@H](c2c(-c3ccc(Oc4cccc(C)n4)cc3)c3c(N)ncnc3n2C)[C@H]1C` (single isomer, unassigned) [Example 940], the pIC50 in assay [1] and in assay [2] (setting [3]) was 4.00 to 6.00 in each case.

Regarding `C#Cc1ncc(-c2c(-c3ccc(C(=O)N4CCC[C@@H]4C#C)cc3)c3c(N)ncnc3n2C)c(C)c1F` (single isomer, unassigned) [Example 1332], the pIC50 is above 7.00 in assay [1] and at least 7.00 in assay [2] (setting [3]).

Take `C=C(C)C(=O)Nc1ccc(-c2c(C3=CC[C@](C)(C(=O)N4CCCC4)CC3)c3c(N)ncnc3n2C)cc1` [Example 1024]: the pIC50 in assay [1] and in assay [2] (SNU-16 cells) was 6.00 to 6.60 in each case.

With `C=C(C)C(=O)Nc1ccc(-c2c(C3=CC[C@H](C(=O)N4CCC5(CC5)C4)CC3)c3c(N)ncnc3n2C)cc1` (single isomer, unassigned) [Example 892], the negative-log IC50 (pIC50) in assay [1] is 6.60 to 7.00; in assay [2] (setting [3]), at least 7.00.

In the case of `C=C(C)C(=O)Nc1ccc(-c2c(-c3ccc4[nH]ncc4c3)c3c(N)ncnc3n2C)cc1` [Example 1390], the pIC50 in assay [1] and in assay [2] (setting [3]) was 4.00 to 6.00 in each case.

In the case of `C=C(C)C(=O)Nc1ccc(-c2c(C3=CCN(Cc4ccccc4)CC3)c3c(N)ncnc3n2C)cc1` [Example 1189], the pIC50 in assay [1] is above 7.00; in assay [2] (setting [3]) it was at least 7.00.

As usually defined, the pIC50 is the IC50 on a negative log10 scale, so that one unit is a factor of ten. Read a high pIC50 as a small IC50.
